Test results reported in US20080171716A1, “NUCLEIC ACID MODULATION OF TOLL-LIKE RECEPTOR-MEDIATED IMMUNE STIMULATION” (Protiva Biotherapeutics, Inc., priority 2006, published 2008).
“Also recorded” adds a separate entry of the source. m = 2'-O-methyl; r = 2'-OH (RNA)

Columns and labels:
TLR7/8 = experiment: Cytokine induction in human PBMCs by immunostimulatory RNA, alone or co-formulated with modified ssRNA in the same SNALP/lipid particle; assay type: cell-based; settings: for immunostimulatory effects (IFN-α induction) of ApoB antisense ssRNA when co-formulated / immunostimulatory effects (IFN-α induction) of ApoB siRNA duplex when co-formulated: co-formulated in the same SNALP; for immunostimulatory effects (IFN-α induction) of ApoB antisense ssRNA when co-formulated: 1:1 molar ratio; for immunostimulatory effects (IFN-α induction) of ApoB siRNA duplex when co-formulated: equimolar
Experimental: (§1) All RNA molecules used in this study were heated at 90° C. for 3 min. and then placed at 37° C. for 60 min. Non-denaturing PAGE analysis on a 20% polyacrylamide gel was performed to confirm that ssRNA molecules were intact and that no duplexes had formed upon heating. The RNA molecules were encapsulated in a SNALP formulation comprising PEG-cDMA:DLinDMA:cholesterol:DSPC in a 2:40:48:10 mol % ratio (2:40 SNALP), prepared using a syringe press process.
(§2) Fresh human peripheral blood mononuclear cells (PBMCs) were isolated and seeded at about 3×10^5 cells/well in a total volume of 180 μl. Next, 20 μl of the appropriate SNALP diluted in PBS or 10 μl of naked TLR agonist were added to the PBMCs. For time course experiments, PBMCs were pretreated with UmodS ssRNA or a control and the appropriate naked TLR agonist was added at 0, 0.5, or 2 hours after pretreatment. When the SNALP and naked TLR agonist were added separately, the SNALP was added first followed by the naked TLR agonist. At t=24 hr., the cell supernatant was harvested and IFN-α and/or IL-6 levels were determined using ELISA.
The ssRNA molecules used in this study were heated at 90° C. for 3 min. and then placed at 37° C. for 60 min to disrupt any potential secondary structure. Non-denaturing PAGE analysis on a 20% polyacrylamide gel was performed to confirm that ssRNA molecules were intact and that no duplexes had formed upon heating. siRNA duplexes were prepared by annealing equimolar concentrations of two deprotected and desalted ssRNA oligonucleotides using standard procedures. Formation of annealed siRNA duplexes was confirmed by non-denaturing PAGE analysis on a 20% polyacrylamide gel. The RNA molecules were encapsulated in a 2:40 SNALP formulation prepared using a syringe press process.
Fresh human peripheral blood mononuclear cells (PBMCs) were isolated and seeded at about 3×10^5 cells/well in a total volume of 180 μl. Next, 20 μl of the appropriate SNALP diluted in PBS were added to the PBMCs. At t=24 hr., the cell supernatant was harvested and IFN-α and/or IL-6 levels were determined using an enzyme-linked immunosorbent assay (ELISA). For example, IFN-α and IL-6 levels can be measured using a sandwich ELISA kit available from PBL Biomedical (Piscataway, N.J.) and eBioscience (San Diego, Calif.), respectively.
(§3) Lipid Encapsulation of RNA and ODN. RNA or ODN were encapsulated in liposomes by a process of spontaneous vesicle formation as described in Judge et al., supra, and Jeffs et al., Pharm. Res., 22:362-372 (2005).
(§4) Cell Isolation and Culture. Human PBMCs were isolated from whole blood of healthy donors by a standard Ficoll-Hypaque density centrifugation. Blood was diluted 1:1 with PBS, layered onto Ficoll-Paque Plus, and centrifuged at 1600 RPM for 30 min. PBMCs were washed in PBS twice followed by resuspension in complete media (RPMI 1640, 10% heat inactivated FBS, 2 mM L-glutamine, and 1% penicillin/streptomycin). PBMCs were plated at 2.5×10^5 cells/well in 96 well plates for cytokine induction assays.
(§5) Loxoribine (InvivoGen; San Diego, Calif.), polyIC (Sigma-Aldrich; St. Louis, Mo.), and formulated nucleic acids were diluted in PBS and added to either human PBMC or Flt3L DC cultures. Cells were incubated 24 h at 37° C. before supernatants were assayed for cytokines by ELISA.
(§6) Cytokine ELISA. All cytokines were quantified using sandwich ELISA kits according to the manufacturer's instructions. These were mouse and human IFN-α (PBL Biomedical; Piscataway, N.J.) and IL-6 (eBioscience; San Diego, Calif.).

TLR7 = target: T1, TLR7 (Homo sapiens, UniProt Q9NYK1); experiment: Loxoribine (TLR7 agonist)-induced IFN-α/IL-6 production in human PBMCs; assay type: cell-based; settings: for reduction of Lox induced IFN-α / reduction of Lox induced IL-6: 300 μM Lox, formulated 2′OMe RNA 1.5 μg/ml (~0.2 μM), 24 h, replicate experiments; for IL-6 levels induced by naked loxoribine / level of IFN-α induced by naked loxoribine: SNALP-encapsulated ssRNA added before naked agonist, supernatant at 24 hr, ELISA
T1 construct: Human PBMCs were isolated from whole blood of healthy donors; endogenous in cells; host or cells: primary human PBMCs from healthy donors
T1 sequence (Q9NYK1 27-1049): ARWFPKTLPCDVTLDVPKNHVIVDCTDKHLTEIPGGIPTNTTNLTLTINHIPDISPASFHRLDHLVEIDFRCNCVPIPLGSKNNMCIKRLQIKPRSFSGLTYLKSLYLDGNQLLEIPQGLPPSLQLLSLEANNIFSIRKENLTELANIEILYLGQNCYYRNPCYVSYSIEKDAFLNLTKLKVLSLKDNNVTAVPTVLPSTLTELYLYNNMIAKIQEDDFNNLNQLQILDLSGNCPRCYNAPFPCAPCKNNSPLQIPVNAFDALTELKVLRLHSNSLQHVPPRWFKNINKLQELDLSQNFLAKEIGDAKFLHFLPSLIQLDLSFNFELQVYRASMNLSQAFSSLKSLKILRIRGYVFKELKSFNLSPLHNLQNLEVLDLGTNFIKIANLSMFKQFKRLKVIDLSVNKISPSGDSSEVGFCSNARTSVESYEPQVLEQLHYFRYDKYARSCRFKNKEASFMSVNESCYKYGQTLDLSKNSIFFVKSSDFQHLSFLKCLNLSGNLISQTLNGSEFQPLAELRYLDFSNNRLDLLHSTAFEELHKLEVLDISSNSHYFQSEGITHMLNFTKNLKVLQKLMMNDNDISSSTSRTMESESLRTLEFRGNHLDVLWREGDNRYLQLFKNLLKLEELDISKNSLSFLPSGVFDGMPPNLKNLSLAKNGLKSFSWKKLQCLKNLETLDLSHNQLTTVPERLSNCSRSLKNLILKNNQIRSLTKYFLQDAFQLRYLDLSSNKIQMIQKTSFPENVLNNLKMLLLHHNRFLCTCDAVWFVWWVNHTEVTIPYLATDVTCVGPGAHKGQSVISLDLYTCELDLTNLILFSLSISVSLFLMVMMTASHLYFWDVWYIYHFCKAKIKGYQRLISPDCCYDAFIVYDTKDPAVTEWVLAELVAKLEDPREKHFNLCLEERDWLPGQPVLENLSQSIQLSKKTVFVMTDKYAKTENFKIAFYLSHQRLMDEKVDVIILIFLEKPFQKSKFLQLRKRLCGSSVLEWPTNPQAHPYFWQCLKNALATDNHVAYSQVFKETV
Experimental: as §1, §2, §3, §4, §5, §6

[1] = human PBMCs, co-encapsulated in equimolar amounts in the same SNALP, 24 hr
[2] = human PBMCs, 24 h, listed as Luc-mU
[3] = human PBMCs, equimolar amounts in the same SNALP, 24 h

Substance | IFN-α production induced by the RNA alone (TLR7/8; human PBMC cultures, lipid-formulated RNA alone, doses 0.1 to 3 μg/ml) | IFN-α levels induced by TLR7/8 agonist RNA40 (TLR7/8; [1]) | IL-6 levels induced by TLR7/8 agonist RNA40 (TLR7/8; [1]) | immunostimulatory effects (IFN-α induction) of ApoB antisense ssRNA when co-formulated (TLR7/8; human PBMCs, 24 h) | immunostimulatory effects (IFN-α induction) of ApoB antisense ssRNA when co-formulated (TLR7/8; [2]) | immunostimulatory effects (IFN-α induction) of ApoB siRNA duplex when co-formulated (TLR7/8; human PBMCs, 24 h) | immunostimulatory effects (IFN-α induction) of ApoB siRNA duplex when co-formulated (TLR7/8; [2]) | IFN-α levels induced by β-gal antisense ssRNA when co-encapsulated (TLR7/8; [3]) | reduction of Lox induced IFN-α (TLR7) | reduction of Lox induced IL-6 (TLR7) | IL-6 levels induced by naked loxoribine (TLR7) | level of IFN-α induced by naked loxoribine (TLR7) | cytokine production from human PBMCs when co-formulated with immunostimulatory RNA (TLR7/8; human PBMCs, co-formulated with immunostimulatory ssRNA) | IL-6 levels induced by β-gal antisense ssRNA when co-encapsulated (TLR7/8; [3]) | IFN-α levels induced by β-gal antisense ssRNA when co-encapsulated (TLR7/8; human PBMCs, equimolar amounts in the same SNALP, 24 h, listed as (mU)21)
Luc UmodS: Luc sense strand ssRNA with 2′OMe at uridines: GAmUmUAmUGmUCCGGmUmUAmUGmUAUU (sense GAUUAUGUCCGGUUAUGUAUU; sugars from the 5' end rrmmrmrmrrrrmmrmrmrrr, backbone not given here) | do not induce measurable IFN-α production | significantly reduce | significantly reduce | abolished | abrogated | significantly reduced | abrogated | abrogated | 55+/−16% | 62+/−10% | inhibited | dose-dependently decrease; also recorded: inhibited |  |  | 
polyUmod21: 2′OMe-uridine homopolymer of 21 nucleotides in length (UUUUUUUUUUUUUUUUUUUUU; all 2'-O-methyl, backbone not given here) |  |  |  |  |  |  |  | significantly reduced | 72+/−5% | 80+/−1% | inhibited | inhibited | equally as effective at inhibiting cytokine production | significantly reduced | inhibit
